Assay results published in ChEMBL document CHEMBL1129749, “Nudicauline and elatine as potent norditerpenoid ligands at rat neuronal alpha-bungarotoxin binding sites: importance of the 2-(methylsuccinimido)benzoyl moiety for neuronal nicotinic acetylcholine receptor binding” (J Med Chem, 1996).

These compounds were tested against Neuronal acetylcholine receptor subunit alpha-7 (Rattus norvegicus, UniProt Q05941) (assay: Binding affinity of Norditerpenoid Alkaloids at rat neuronal alpha7-type nicotinic acetylcholine receptor).
Chain of Neuronal acetylcholine receptor subunit alpha-7 (Q05941 whole entry): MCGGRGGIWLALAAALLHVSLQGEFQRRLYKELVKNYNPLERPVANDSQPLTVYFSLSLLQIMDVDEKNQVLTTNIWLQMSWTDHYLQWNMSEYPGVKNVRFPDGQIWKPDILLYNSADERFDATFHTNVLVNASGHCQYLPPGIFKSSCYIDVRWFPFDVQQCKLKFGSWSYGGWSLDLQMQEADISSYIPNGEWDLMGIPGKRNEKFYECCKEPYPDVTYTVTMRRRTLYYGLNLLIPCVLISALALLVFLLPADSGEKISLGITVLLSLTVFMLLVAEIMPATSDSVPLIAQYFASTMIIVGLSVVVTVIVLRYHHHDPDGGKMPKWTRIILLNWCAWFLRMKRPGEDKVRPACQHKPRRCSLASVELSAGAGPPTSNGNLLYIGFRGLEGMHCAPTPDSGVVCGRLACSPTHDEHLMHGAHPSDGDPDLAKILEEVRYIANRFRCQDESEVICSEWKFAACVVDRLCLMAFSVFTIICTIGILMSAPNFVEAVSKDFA

First: CCN1C[C@]2(OC(=O)c3ccccc3N)CC[C@H](OC)[C@]34C1[C@@H](CC23)[C@@]1(O)C[C@H](OC)[C@H]2CC4[C@]1(O)[C@H]2OC (some centres undefined)
Second: CCN1C[C@]2(OC(=O)c3ccccc3NC(C)=O)CC[C@H](OC)[C@@]34[C@@H]2C[C@@H]([C@@H]13)[C@@]1(O)C[C@H](OC)[C@H]2C[C@@H]4[C@]1(O)[C@H]2OC
The IC50 of the first is 14-fold lower: 6.8 µM for the first, 96 µM for the second.

First: CCN1C[C@]2(COC)CC[C@H](O)[C@@]34C5C[C@@H]6[C@@H](OC)C[C@](O)(C(CC23)C14)C5[C@H]6OC(C)=O (some centres undefined) [CONDELPHINE]
Second: CCN1C[C@]2(COC)CC[C@H](O)[C@]34C1[C@@](O)([C@@H](OC)[C@H]23)[C@@]1(O)C[C@H](OC)[C@H]2C[C@@H]4[C@@H]1[C@H]2OC [DELSOLINE]
The IC50 of the first is 12-fold lower: 1.6 µM for the first, 19 µM for the second. The first is the more potent here.

Compared with `CCN1C[C@]2(COC)CC[C@H](OC)[C@]34C5C[C@@H]6[C@@H](OC)C[C@@]7(OCO[C@@]7(C13)[C@@H](O)C24)C5[C@H]6OC` (some centres undefined) [DELCORINE], `CCN1C[C@]2(CO)CC[C@H](OC)[C@@]34[C@@H]5C[C@H]6[C@H](OC)[C@@H]5[C@](O)(C[C@@H]6OC)[C@](O)([C@@H](OC)[C@H]23)[C@@H]14` [LYCOCTONINE] is 5.3-fold lower in IC50: 53 µM for the first, 10 µM for the second. The second is the more potent here.

First: CCN1C[C@]2(C)CC[C@H](OC)[C@@]34C1[C@]1(OCO[C@@]15C[C@H](OC)[C@H]1C[C@]3(O)[C@@H]5[C@H]1OC)[C@@H](OC(C)=O)[C@H]24 [DELTALINE]
Second: CCN1C[C@]2(COC(=O)c3ccccc3N3C(=O)C[C@H](C)C3=O)CC[C@H](OC)[C@@]34C1[C@@]1(OCO[C@@]15C[C@H](OC)[C@H]1C[C@@H]3[C@@H]5[C@H]1OC)[C@@H](OC)[C@H]24 [ELATINE]
The IC50 of the first is 18000-fold higher: 110 µM for the first, 0.0061 µM for the second. The second is the more potent here.

`CCN1C[C@]2(COC(=O)c3ccccc3N3C(=O)C[C@H](C)C3=O)CC[C@H](OC)[C@]34C5C[C@@H]6[C@@H](OC)C[C@@](O)(C5[C@H]6OC(C)=O)[C@](O)(C13)[C@@H](OC)C24` (some centres undefined) [NUDICAULINE] gave an IC50 of 0.0017 µM.
